Laboratory results taken from patent US20130023553A1, “PEGYLATED OPIOIDS WITH LOW POTENTIAL FOR ABUSE AND SIDE EFFECTS” (Nektar Therapeutics, priority 2010, published 2013).
Where two headings read alike, the source gives them in different places.

What was measured:
[1] = Pharmacokinetics following intravenous (IV) dosing; format: in vivo, Sprague-Dawley rats; design: Cmax: unit: ng/mL; conditions: hydroxycodone series, 1 mg/kg IV, Mean ± SD
Excerpt: (§1) There were 3 rats/group. All animals were food fasted overnight. […] The predose sample was collected from the JVC.
(§2) Following the last collection point, the animals were euthanized.

[2] = Pharmacokinetics following oral (PO) dosing; format: in vivo, Sprague-Dawley rats; design: Cmax: unit: ng/mL; conditions: for bioavailability: po, 5 mg/kg; for AUC(0-inf) / half-life: * n = 2; for half-life: read-out: T1/2(z); for Tmax: median value
Excerpt: as §1, §2

[3] = tested on: CD-1 male mice; assay: Phenylquinone writhing analgesic assay; format: in vivo; conditions: Mus musculus; mPEGn-O-HydroxyCodone series
Description: The assay utilized CD-1 male mice (5-8 mice per group), each mouse being approximately 0.020-0.030 kg on the study day. Mice were treated according to standard protocols. Mice were given a single “pretreatment” dose of a compound lacking covalent attachment of a water-soluble, non-peptidic oligomer (i.e., non-PEG oligomer-modified parent molecule), a corresponding version comprising the compound covalently attached to a water-soluble, non-peptidic oligomer (i.e., the conjugate), or control solution (IV, SC, IP or orally) thirty minutes prior to the administration of the phenylquinone (PQ) solution. Each animal was given an IP injection of an irritant (phenylquinone, PQ) that induces “writhing” which may include: contractions of the abdomen, twisting and turning of the trunk, arching of the back, and the extension of the hindlimbs. Each animal was given an IP injection of PQ (1 mg/kg PQ, 0.1 mL/10 g bodyweight). After the injection, the animals were returned to their observation enclosure and their behavior was observed. Contractions were counted between 35 and 45 minutes after the ‘pretreatment”. The animals were used once. Each tested article was dosed at a range between 0.1 and 100 mg/kg (n=5-10 animals/dose).

[4] = biological target: T1, human mu opioid receptor (Homo sapiens, UniProt P35372); assay: biochemical; format: binding
T1 construct: expressed in transfected cells; host or cells: CHO cells
T1 sequence (P35372 whole entry): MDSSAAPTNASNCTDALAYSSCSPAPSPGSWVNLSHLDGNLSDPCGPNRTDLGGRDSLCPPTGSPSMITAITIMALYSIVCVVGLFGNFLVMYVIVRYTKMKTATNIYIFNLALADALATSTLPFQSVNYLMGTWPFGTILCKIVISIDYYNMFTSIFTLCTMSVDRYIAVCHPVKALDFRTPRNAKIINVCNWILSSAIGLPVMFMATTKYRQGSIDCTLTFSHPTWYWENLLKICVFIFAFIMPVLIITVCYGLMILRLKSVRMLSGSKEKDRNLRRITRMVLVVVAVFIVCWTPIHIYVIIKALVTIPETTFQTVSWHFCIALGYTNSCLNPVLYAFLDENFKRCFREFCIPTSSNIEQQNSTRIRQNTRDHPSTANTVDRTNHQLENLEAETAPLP
Description: Radioligand displacement was measured using scintillation proximity assays (SPA).
Briefly, serial dilutions of the test compounds were placed in a 96-well plate to which were added SPA beads, membrane and radioligand. The assay conditions for each opioid receptor subtype are described in Table 10 below. The plates were incubated for 8 hours-overnight at room temperature, spun at 1000 rpm to pellet the SPA beads, and radioactivity was measured using the TopCount® microplate Scintillation counter. Specific binding at each concentration of test compound was calculated by subtracting the non-specific binding measured in the presence of excess cold ligand. IC50 values were obtained by non-linear regression of specific binding versus concentration curves and Ki values were calculated using Kd values that were experimentally pre-determined for each lot of membrane preparations.

[5] = biological target: T1, human mu opioid receptor; assay: cell-based; conditions: for Emax: read-out: % max effect, mu opioid receptor
Description: Studies were conducted in CHO cells heterologously expressing the cloned human mu, kappa or delta opioid receptors. cAMP was measured using a cAMP HiRange homogenous time-resolved fluorescence assay (HTRF Assay), that is based on a competitive immunoassay principle (Cisbio, Cat.#62AM6PEC).
Briefly, suspensions of cells expressing either the mu, kappa or delta opioid receptors were prepared in buffer containing 0.5 mM isobutyl-methyl xanthine (IBMX). […] EC50 values were calculated for each compound from a sigmoidal dose-response plot of concentrations versus maximum response. To determine if the compounds behaved as full or partial agonists in the system, the maximal response at the highest tested concentrations of compounds were compared to that produced by a known full agonist.

[6] = tested on: mice; assay: Oral dose giving maximal analgesia; format: in vivo
[7] = tested on: squirrel monkeys; assay: Monkey self-administration model of addictive potential
Excerpt: Dose-related effects of the test articles were examined, using two or more doses of each drug in 3-4 subjects in a double alternation schedule in which each unit dose (or vehicle) was used in two consecutive sessions before a change in unit dose.
Addictive potential of opioid compounds and opioid conjugates of the invention may be assessed through the use of squirrel monkey models as known in the art.
Under the double alternation schedule, each unit dose (or vehicle) was available for intravenous self-administration for two consecutive sessions before the unit dose was changed. In this way, it was possible to establish the function relating unit dose of intravenous drug to (i) number of injections per session, and/or (ii) the percentage of total responses that occur on the lever leading to self-administration (injection-lever responding, % ILR). Unit doses of drugs ranged from 0.01 to 3.2 mg/kg/injection.

[8] = 25 mg/kg intravenously, an hour following injection
Description: An hour following injection, the animals were sacrificed and plasma and the brain were collected and frozen immediately. Following tissue and plasma extractions, concentrations of the compounds in brain and plasma were measured using LC-MS/MS. The brain:plasma ratio was calculated as the ratio of measured concentrations in the brain and plasma.

[9] = male, Sprague-Dawley, rat, plasma
[10] = male, Sprague-Dawley, rat, plasma, hydroxycodone series, 5.0 mg/kg oral, Mean ± SD
[11] = male, Sprague-Dawley, rat, plasma, hydroxycodone series, 5.0 mg/kg oral, Mean ± SD, read-out: Cmax
[12] = male, Sprague-Dawley, rat, plasma, hydroxycodone series, 5.0 mg/kg oral, read-out: Tmax (converted)
[13] = hydroxycodone series, 5.0 mg/kg oral, Mean ± SD

SMILES: COCCOCCOCCOCCOC1CCC2(O)C3Cc4ccc(OC)c5c4C2(CCN3C)C1O5 (stereo not drawn) [α-6-mPEG4-O-hydroxycodone, α-6-mPEG4-O-oxycodone]
- AUC [1, 9]: 192 ng·h/mL
- AUC(0-inf) [1, 9]: 193 ng·h/mL
- MRT last [1, 9]: 35.6 min
- clearance [1, 9]: 86.5 ± 6.36 mL/min/kg
- Cmax ([1]; male, Sprague-Dawley, rat, plasma, read-out: Cmax): 537 ± 31 ng/mL
- half-life ([1]; male, Sprague-Dawley, rat, plasma, read-out: T1/2(z)): 43.6 ± 3.27 min
- Vd ([1]; male, Sprague-Dawley, rat, plasma, read-out: Vss): 3.34 ± 0.113 L/kg
- bioavailability [2, 9]: 11%
- AUC [2, 10]: 106 ng·h/mL
- MRT last [2, 10]: 96.6 min
- AUC(0-inf) [2, 10]: 88 ng·h/mL
- half-life [2, 10]: 70.3 min
- Cmax [2, 11]: 55.8 ± 4.69 ng/mL
- Tmax [2, 12]: 15 min
- ED50 [3]: 17.3 mg/kg
- Ki [4]: 893 nM
- EC50 [5]: 3720 nM
- Emax [5]: 109%

SMILES: COc1ccc2c3c1O[C@H]1C(=O)CC[C@@]4(O)[C@@H](C2)N(C)CC[C@]314 [Oxycodone, oxycodone, reference compound]
- oral dose at which maximal analgesia was obtained [6]: 14 mg/kg
- AUCall [1]: 12800 ± 1090 ng·min/mL
- AUCinf [1]: 13000 ± 1070 ng·min/mL
- CL [1]: 77.1 ± 6.26 mL/min/kg
- Cmax [1]: 495 ± 56.0 ng/mL
- MRTlast [1]: 37.0 ± 1.28 min
- T1/2(z) [1]: 47.0 ± 3.99 min
- subjects showing addictive behavior ([7]; 0.01 mg/kg/injection): 25%
- injection lever responses (% ILR) ([7]; 0.03 mg/kg/injection): 100%
- subjects showing addictive behavior ([7]; 0.03 mg/kg/injection): 100%
- injection lever responses (% ILR) ([7]; 0.1 mg/kg/injection): 100%
- AUCall [2, 13]: 4520 ± 1660 ng·min/mL
- Cmax [2, 13]: 25.5 ± 1.86 ng/mL
- MRTlast [2, 13]: 179 ± 17.4 min
- Tmax ([2]; hydroxycodone series, 5.0 mg/kg oral): 15.0 min
- ED50 [3]: 0.619 mg/kg

SMILES: COCCOCCOCCO[C@H]1CC[C@@]2(O)[C@H]3Cc4ccc(O)c5c4[C@@]2(CCN3CC2CCC2)[C@H]1O5 [6-O-mPEG3-Nalbuphine]
- Brain:Plasma Ratios [8]: 0.23

SMILES: COCCOC1CCC2(O)C3Cc4ccc(OC)c5c4C2(CCN3C)C1O5 (stereo not drawn) [α-6-mPEG1-O-hydroxycodone, α-6-mPEG1-O-oxycodone]
- bioavailability [2, 9]: 2.1%
- AUC [2, 10]: 17.5 ng·h/mL
- MRT last [2, 10]: 66.8 min
- AUC(0-inf) [2, 10]: 19.2 ng·h/mL
- half-life [2, 10]: 57.7 min
- Cmax [2, 11]: 14.3 ± 6.43 ng/mL
- Tmax [2, 12]: 15 min
- ED50 [3]: 6.06 mg/kg
- Ki ([4]; CHO-K1 membranes, [3H]DAMGO 6 nM, read-out: Ki, Mu opioid receptor): 654 nM
- Emax ([5]; maximal response at the highest tested concentration): 102%
- EC50 ([5]; read-out: EC50, mu opioid receptor): 3840 nM
